Legend:
Assay in all cases: area over the GR curve, 72 h; higher = more effect;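 further: Dye Drop or Deep Dye Drop imaging of viable cells in 384-well plates (Hoechst nuclei, LIVE/DEAD dye), nine half-log doses, GR normalized to DMSO controls and time-zero plates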
[1] = test system: 184A1
[2] = test system: AU565
[3] = test system: BT474
[4] = test system: EVSAT
[5] = test system: HCC1395
[6] = test system: HCC1937
[7] = test system: HCC38
[8] = test system: HCC70
[9] = test system: MCF10A
[10] = test system: MDAMB175VII
[11] = test system: PDXHCI002
[12] = test system: SKBR3
[13] = test system: SUM229PE

Row | SMILES | area over the GR curve [1] | area over the GR curve [2] | area over the GR curve [3] | area over the GR curve [4] | area over the GR curve [5] | area over the GR curve [6] | area over the GR curve [7] | area over the GR curve [8] | area over the GR curve [9] | area over the GR curve [10] | area over the GR curve [11] | area over the GR curve [12] | area over the GR curve [13]
1 | CNCc1ccc(-c2[nH]c3cc(F)cc4c3c2CCNC4=O)cc1 [Rucaparib] (max 10 µM) | 0.0986 GR | 0.0692 GR | 0.122 GR | 0.0455 GR | 0.385 GR | 0.0989 GR | 0.139 GR | -0.0415 GR | 0.0413 GR | 0.136 GR | 0.0896 GR | 0.119 GR | 0.047 GR
2 | CC1(N)CCN(c2cnc(-c3cccc(Cl)c3Cl)c(N)n2)CC1 [SHP099] (max 10 µM) | 0.118 GR | 0.0263 GR | -0.022 GR | -0.0008 GR | 0.0738 GR | 0.0653 GR | 0.172 GR | 0.074 GR | 0.081 GR | 0.238 GR | 0.0735 GR | 0.0253 GR | -0.0033 GR
3 | CN1CCN(CCOc2cc(OC3CCOCC3)c3c(Nc4c(Cl)ccc5c4OCO5)ncnc3c2)CC1 [Saracatinib/AZD0530] (max 10 µM) | 0.0722 GR | 0.119 GR | 0.303 GR | 0.203 GR | 0.111 GR | 0.039 GR | 0.101 GR | 0.573 GR | 0.125 GR | 0.762 GR | 0.512 GR | -0.0324 GR | 0.131 GR
4 | Cc1cc(C(C)Nc2ccccc2)c2nc(N3CCOCC3)cc(=O)n2c1 (configuration not stated) [TGX221] (max 10 µM) | 0.0024 GR | 0.103 GR | -0.0718 GR | 0.254 GR | 0.0832 GR | 0.0193 GR | -0.0299 GR | 0.467 GR | 0.005 GR | -0.0733 GR | -0.0291 GR | -0.0125 GR | -0.0167 GR
5 | CN(C)C/C=C/C(=O)Nc1ccc(C(=O)Nc2cccc(Nc3ncc(Cl)c(-c4c[nH]c5ccccc45)n3)c2)cc1 [THZ1] (max 1 µM) | 0.528 GR | 0.607 GR | 0.686 GR | 0.251 GR | 0.609 GR | 0.348 GR | 0.525 GR | 0.762 GR | 0.36 GR | 0.487 GR | 0.527 GR | 0.673 GR | 0.504 GR
6 | CN(C)C/C=C/C(=O)Nc1ccc(C(=O)N2CCC[C@@H](Nc3ncc(Cl)c(-c4c[nH]c5ccccc45)n3)C2)cc1 [THZ531] (max 1 µM) | 0.214 GR | 0.42 GR | 0.572 GR | 0.0912 GR | 0.37 GR | 0.176 GR | 0.223 GR | 0.462 GR | 0.162 GR | 0.567 GR | 0.352 GR | 0.545 GR | 0.132 GR
7 | CN(C)C/C=C/C(=O)Nc1ccc(C(=O)Nc2cccc(Nc3cc(-c4c[nH]c5ccccc45)ncn3)c2)cc1 [THZ-P1-2] (max 10 µM) | 0.351 GR | 0.194 GR | -0.079 GR | 0.127 GR | 0.442 GR | 0.288 GR | 0.181 GR | 0.326 GR | 0.13 GR | 0.458 GR | 0.153 GR | 0.154 GR | 0.149 GR
8 | Cc1nc(-c2cn3c(n2)-c2ccc(-c4cnn(C(C)(C)C(N)=O)c4)cc2OCC3)n(C(C)C)n1 [Taselisib/GDC0032] (max 10 µM) | 0.457 GR | 0.97 GR | 1.43 GR | 0.412 GR | 0.208 GR | 0.277 GR | 0.202 GR | 0.548 GR | 0.484 GR | 1.32 GR | 0.374 GR | 0.807 GR | 0.397 GR
9 | O=C1NC(=O)[C@@H](c2cn3c4c(cccc24)CCC3)[C@@H]1c1c[nH]c2ccccc12 [Tivantinib/ARQ197] (max 10 µM) | 0.582 GR | 0.577 GR | 0.309 GR | 0.443 GR | 0.372 GR | 0.29 GR | 0.436 GR | 0.474 GR | 0.451 GR | 0.531 GR | 0.528 GR | 0.479 GR | 0.661 GR
10 | Nc1ccc(-c2ccc3ncc4ccc(=O)n(-c5cccc(C(F)(F)F)c5)c4c3c2)cn1 [Torin2] (max 1 µM) | 0.46 GR | 0.657 GR | 0.604 GR | 0.511 GR | 0.441 GR | 0.291 GR | 0.538 GR | 0.645 GR | 0.337 GR | 1.04 GR | 0.0743 GR | 0.734 GR | 0.345 GR
11 | CC[C@@H]1C(=O)N(C)c2cnc(Nc3ccc(C(=O)N[C@H]4CC[C@H](N5CCN(CC6CC6)CC5)CC4)cc3OC)nc2N1C(C)C [Volasertib/BI6727] (max 1 µM) | 0.54 GR | 0.855 GR | 0.636 GR | 0.666 GR | 0.759 GR | 0.497 GR | 0.59 GR | 0.579 GR | 0.447 GR | 0.449 GR | 0.831 GR | 0.694 GR | 0.605 GR
12 | O=C(CCCCCCC(=O)Nc1ccccc1)NO [Vorinostat] (max 10 µM) | 0.188 GR | 0.327 GR | 0.136 GR | 0.19 GR | 0.099 GR | 0.193 GR | 0.284 GR | 0.38 GR | 0.168 GR | 0.445 GR | 0.545 GR | 0.345 GR | 0.153 GR
13 | C=CC(=O)Nc1ccc(C(=O)Nc2[nH]nc3c2CN(C(=O)N[C@H](CN(C)C)c2ccccc2)C3(C)C)cc1 [YKL-5-124] (max 10 µM) | 0.929 GR | 1 GR | 0.944 GR | 0.911 GR | 0.874 GR | 0.861 GR | 0.928 GR | 1.46 GR | 0.921 GR | 0.989 GR | 0.849 GR | 0.965 GR | 0.744 GR
14 | CN1CCN(C(=O)c2ccc3cc(CCNc4ncnc5ccc(C#N)cc45)ccc3c2)CC1 [senexin b] (max 10 µM) | 0.107 GR | 0.111 GR | 0.0613 GR | 0.0803 GR | 0.264 GR | 0.286 GR | 0.152 GR | 0.209 GR | -0.0308 GR | 0.427 GR | -0.125 GR | 0.172 GR | 0.21 GR
